Assay results as given in US20100330116A1, “LIVE […] USE AS VACCINE” (The University of Queensland, priority 2004, published 2010).

Experiments:
FD436 [1] = experiment: MBC determination of nalidixic acid and rifampicin (growth on SBA plates); settings: TSB, then SBA 37° C., 48 h
FD436 [2] = experiment: MIC determination of nalidixic acid and rifampicin (broth dilution, Bioscreen turbidity); settings: TSB, 37° C., 24 h

SMILES	MBC for FD436 (FD436 [1])	MIC for FD436 (FD436 [2])
CCn1cc(C(=O)O)c(=O)c2ccc(C)nc21 [Nalidixic acid]	0.00125 % (w/v)	0.00125 % (w/v)
CO[C@H]1/C=C/O[C@@]2(C)Oc3c(C)c(O)c4c(O)c(c(/C=N/N5CCN(C)CC5)c(O)c4c3C2=O)NC(=O)/C(C)=C\C=C\[C@H](C)[C@H](O)[C@@H](C)[C@@H](O)[C@@H](C)[C@H](OC(C)=O)[C@@H]1C [Rifampicin]	0.0025 % (w/v)	0.0025 % (w/v)
